Results reported in US20200315231A1, “CO-C[…]” (NESTES S,A,, priority 2016, published 2020).

Experiment: Water uptake behavior study in powder matrices at 33% Relative Humidity
Assay type: physicochemical
Settings: all samples tested (maltodextrin, skimmed milk powder, full cream milk powder, growing up milk powder), co-crystal 7.6% by weight, 22 days, versus equivalent dry-mix CaCl2.2 H2O+sucrose
Procedure: The water uptake behavior was studied for the co-crystal of Sucrose.CaCl2.4 H2O in four different powder matrices: Maltodextrin (FIG. 5), skimmed milk powder (FIG. 6), full cream milk powder with 26% fat (FIG. 7), and powdered “growing up milk” (Nestlé BEBA3) (FIG. 8). For each matrix, three different calcium containing material were mixed into the powder to simulate calcium fortification. Powders were stored in a desiccator at 33% Relative Humidity over 22 days. The water uptake was measured every 3-4 days by tracking the weight change. The water uptake is shown in FIGS. 5 to 8): powder matrix alone (♦), powder matrix with CaCl2. 2 H2O (2.1% by weight): 13.59 g of matrix+290 mg of CaCl2.2 H2O (●), powder matrix with co-crystalline Sucrose.CaCl2.4 H2O (7.6% by weight): 13.59 g of matrix+1.04 g of co-crystal (▴), and powder matrix with the equivalent dry-mix: 13.59 g of matrix+290 mg of CaCl2.2 H2O+670 mg of sucrose (▪).

## O.O.O.O.OC[C@H]1O[C@@](CO)(O[C@H]2O[C@H](CO)[C@@H](O)[C@H](O)[C@H]2O)[C@@H](O)[C@@H]1O.[Ca+2].[Cl-].[Cl-] [co-crystal, Sucrose.CaCl2.4 H2O]
  water uptake (weight change) compared with the dry mix: lower for the co-crystal than for the dry mix
